Measured values taken from the NIST ThermoML archive (doi:10.1021/je7001013).

Tests used:
[1] = refractive index (Na D-line) (dimensionless); details: 101.33 kPa, Liquid
[2] = refractive index (Na D-line) (dimensionless); xn = mol fraction of the nth substance listed; details: 101 kPa, Liquid
[3] = xn = mol fraction of the nth substance listed

C[S+](C)[O-] [dimethyl sulfoxide]
[1]
Details | refractive index
298.15 K | 1.4765
303.15 K | 1.474
308.15 K | 1.472

Details | surface tension liquid-gas [mN/m]
298.15 K | 41.7
303.15 K | 41
308.15 K | 40.3
313.15 K | 39.7
318.15 K | 39.1
323.15 K | 38.5
328.15 K | 37.9

CC[S+]([O-])CC [diethyl sulfoxide]
[1]
Details | refractive index
298.15 K | 1.468
303.15 K | 1.466
308.15 K | 1.464

Details | surface tension liquid-gas [mN/m]
298.15 K | 34.6
303.15 K | 34.1
308.15 K | 33.7
313.15 K | 33.2
318.15 K | 32.7
323.15 K | 32.4
328.15 K | 32

CC(C)S(=O)C(C)C [2,2'-sulfinylbispropane] + O
Details | refractive index, [2] | surface tension liquid-gas, [3] [mN/m]
298.15 K, x1 = 0.0087 | 1.3435 | 52.5
298.15 K, x1 = 0.0197 | 1.353 | 48.8
298.15 K, x1 = 0.0505 | 1.38 | –
298.15 K, x1 = 0.0987 | 1.407 | –
298.15 K, x1 = 0.4035 | 1.453 | 35.9
298.15 K, x1 = 0.6002 | 1.46 | 33.9
298.15 K, x1 = 0.7756 | 1.4625 | 32.6
298.15 K, x1 = 0.8899 | 1.4635 | 32.2
303.15 K, x1 = 0.0087 | 1.343 | 52.4
303.15 K, x1 = 0.0197 | 1.352 | 48.1
303.15 K, x1 = 0.0505 | 1.3785 | 42.9
303.15 K, x1 = 0.0987 | 1.406 | –
303.15 K, x1 = 0.4035 | 1.451 | 34.6
303.15 K, x1 = 0.6002 | 1.4575 | 33.3
303.15 K, x1 = 0.7756 | 1.461 | 32.1
303.15 K, x1 = 0.8899 | 1.4625 | 31.7
308.15 K, x1 = 0.0087 | 1.342 | 51.5
308.15 K, x1 = 0.0197 | 1.3515 | 47.3
308.15 K, x1 = 0.0505 | 1.3775 | 41.8
308.15 K, x1 = 0.0987 | 1.404 | 35.1
308.15 K, x1 = 0.4035 | 1.448 | 34.1
308.15 K, x1 = 0.6002 | 1.456 | 32.7
308.15 K, x1 = 0.7756 | 1.459 | 31.5
308.15 K, x1 = 0.8899 | 1.4605 | 31.1
313.15 K, x1 = 0.0087 | – | 50.6
313.15 K, x1 = 0.0197 | – | 46.6
313.15 K, x1 = 0.0505 | – | 41.2
313.15 K, x1 = 0.0987 | – | 36
313.15 K, x1 = 0.4035 | – | 33.4
313.15 K, x1 = 0.6002 | – | 32.1
313.15 K, x1 = 0.7756 | – | 30.9
313.15 K, x1 = 0.8899 | – | 30.6
318.15 K, x1 = 0.0087 | – | 49.8
318.15 K, x1 = 0.0197 | – | 45.8
318.15 K, x1 = 0.0505 | – | 40.6
318.15 K, x1 = 0.0987 | – | 37
318.15 K, x1 = 0.4035 | – | 32.8
318.15 K, x1 = 0.6002 | – | 31.5
318.15 K, x1 = 0.7756 | – | 30.3
318.15 K, x1 = 0.8899 | – | 30
323.15 K, x1 = 0.0087 | – | 48.9
323.15 K, x1 = 0.0197 | – | 45
323.15 K, x1 = 0.0505 | – | 39.9
323.15 K, x1 = 0.0987 | – | 36.7
323.15 K, x1 = 0.4035 | – | 31.8
323.15 K, x1 = 0.6002 | – | 30.4
323.15 K, x1 = 0.7756 | – | 29.8
323.15 K, x1 = 0.8899 | – | 29.5
328.15 K, x1 = 0.0087 | – | 48
328.15 K, x1 = 0.0197 | – | 43.7
328.15 K, x1 = 0.0505 | – | 39.7
328.15 K, x1 = 0.0987 | – | 36.4
328.15 K, x1 = 0.4035 | – | 31
328.15 K, x1 = 0.6002 | – | 29.8
328.15 K, x1 = 0.7756 | – | 29.3
328.15 K, x1 = 0.8899 | – | 28.9

CC(C)S(=O)C(C)C [2,2'-sulfinylbispropane]
[1]
Details | refractive index
298.15 K | 1.4645
303.15 K | 1.462
308.15 K | 1.4595

Details | surface tension liquid-gas [mN/m]
298.15 K | 31.8
303.15 K | 31.2
308.15 K | 30.7
313.15 K | 30.3
318.15 K | 29.8
323.15 K | 29.5
328.15 K | 29.1
